Activity calls are given as the source filed them.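 Rule for the calls: active = IC50 at or below 20 µM in the dose response confirmation; inactive = the rest.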

One may read the IC50 as the point on the concentration scale where inhibition reaches its midpoint.

For this test, the target named is Low molecular weight phosphotyrosine protein phosphatase (Homo sapiens) (UniProt P24666). Briefly: LMPTP phosphatase inhibitors, SAR follow-up, biochemical, fluorescence intensity (AID 686962). The following applies: recombinant LMPTP-A, OMFP fluorogenic substrate, 50 min.
Low molecular weight phosphotyrosine protein phosphatase (Homo sapiens), sequence (P24666 whole entry, looked up): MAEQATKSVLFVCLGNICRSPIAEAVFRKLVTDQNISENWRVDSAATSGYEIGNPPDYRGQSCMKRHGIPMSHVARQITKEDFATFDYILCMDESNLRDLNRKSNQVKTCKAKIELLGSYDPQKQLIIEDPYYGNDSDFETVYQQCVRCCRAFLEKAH
Turning to `Fc1ccccc1-c1nc(NCCCN2CCOCC2)c2ccccc2n1`, the IC50 entry was “inactive”.

On to `COc1ccccc1CNc1ncnc2ccsc12`, for which the IC50 was > 80 µM (inactive).

On to `O=C(OCCNc1nc(-c2ccccc2)nc2ccccc12)c1ccncc1`, for which the IC50 result is “inactive”.

Regarding `c1ccc(-c2cc(NCCN3CCCCC3)c3ccccc3n2)cc1`, the IC50 is 2.86 µM.

As to `c1ccc(-c2cc(N3CCCCC3)c3ccccc3n2)cc1`, the IC50 is 11.1 µM.

For the compound `c1ccc(-c2nc(NCc3cccnc3)c3ccccc3n2)cc1`, the IC50 was 19 µM.

With `Nc1nc(N)c(Cc2ccc(Cl)cc2Cl)c(N)n1`, the IC50 was 11.5 µM.

As for `Clc1cccc(Cl)c1Cn1cnc(=NCc2ccco2)c2[nH]cnc21`, the IC50 was 10.2 µM.

Consider `Cc1ccc(-c2nc(NCCN3CCOCC3)c3ccccc3n2)cc1`, for which the IC50 is 18.8 µM.

For `CCc1nc(N)nc(N)c1-c1ccc(Cl)cc1`, the IC50 is 14.7 µM.

As for `Cc1ccc(-c2nc(NCc3cccnc3)c3ccccc3n2)cc1`, the IC50 is 12.9 µM.

For the compound `Fc1ccccc1-c1nc(NC2CCCC2)c2ccccc2n1`, the IC50 is 10.6 µM.

Take `O=C(OCCNc1nc(-c2ccccc2)nc2ccccc12)c1cccnc1`: the IC50 result is “inactive”.

With `c1ccc(-c2nc(NCCCn3ccnc3)c3ccccc3n2)cc1`, the IC50 is 17.8 µM.

In the case of `Cc1c(CCC(=O)O)c(=O)oc2c(C)c(OCc3ccccc3Cl)ccc12`, the IC50 is 7.41 µM.

With `CC(C)OCCCNc1nc(-c2ccccc2)nc2ccccc12`, the IC50 was 18.1 µM.

As for `Cc1cccc(-c2nc(NCCCN3CCOCC3)c3ccccc3n2)c1`, the IC50 was 13.5 µM.

Values taken from PubChem BioAssay AID686962 (Sanford-Burnham Center for Chemical Genomics, 2013).
